Laboratory results reported in patent US20120107323A1, “KINASE PROTEIN BINDING INHIBITORS” (University of Florida, priority 2009, published 2012).

Tests used:
[1] = test system: esophageal patient #5 adenocarcinoma tumor; test: Esophageal patient #5 xenograft; type: in vivo, mice
Excerpt: For tumor samples from human patients with esophageal or pancreatic cancer, the University of Florida IACUC approved the following protocol (IACUC Study #2000902767). A total of 25 patients, 10 with pancreatic cancer and 15 with esophageal cancer have been identified and implanted into nude mice. Initially small pieces (0.3×0.3×0.3 cm) from fresh pancreatic and esophageal human tumor samples were obtained from surgical specimens of patients operated at the University of Florida Shands Hospital, and implanted subcutaneously in-group of 2 mice for each patient. For esophageal cancer specimens, when one of them has reached 1.5 cc, it was excised and was cut into small pieces of (0.3×0.3×0.3 cm), and transplanted subcutaneously into another 10 mice. When tumors reached ˜100 mm^3, mice were randomized in the following 2 groups, with 5 mice in each group: • Group 1: Control: no treatment. • Group 2: INT2-31 (Compound 31): 50 mg/kg/day in 50 μL by i.p administration for 21 days.
Mice were euthanized 30-40 days after tumor innoculation and tumor and tissue collected. For inhibition of tumor growth in our subcutaneous model, tumor volumes (length×width×height×p/6) and body weights were determined daily including weekends and holidays, to monitor tumor growth and evaluate overall clinical condition, taking into account weight loss and indications of pain, distress, or abnormal behavior and physiology. Experiments were terminated when the mean control tumor volume was 1.5 cc (approximately 30-40 days).
Immunohistochemistry: Xenograft tumor tissue was fixed in 10% formalin and embedded in paraffin. For Ki-67 staining, samples underwent deparaffinization and antigen retrieval and incubated with the primary antibody, Ki-67 (Dako M7240), at 1:200 concentration overnight at 4° C. The tissues were stained with the chromogen DAB and counterstained with hematoxylin and 1% TBS.
Subsequently, we evaluated the inhibition of in vivo tumor growth of esophageal patient #5 specimen was evaluated. […]

[2] = test system: Panc-1 orthotopic xenografts; test: Orthotopic pancreatic xenograft, Panc-1; type: in vivo, mice; parameters: dose or concentration left out as unconfirmed; conditions: Panc-1, 21 days
Excerpt: For the orthotopic model of pancreatic cancer, the University of Florida IACUC approved the following protocol (IACUC Study #2000801506). The pancreatic cancer cell lines, Mia paca-2 and Panc-1 cells were stably transfected using luciferase-RFP (red fluorescent protein) reporter gene for in vivo imaging of the xenografts. Following expansion and sorting of RFP positive cells, cells were expanded in culture and 5×10^6 tumor cells were implanted into the pancreas of 20 mice. For intra-pancreatic implantation of cells, mice were anesthetized with Isoflurane using the ACS provided and maintained rodent anesthesia machine. Under sterille surgical conditions, via 1.0 cm incision of the skin, abdominal wall and peritonium, the spleen was retracted and cells were injected in […] into the tail of the pancreas using a 29-gauge needle. The abdominal wall and peritoneum was sutured using 5.0 absorbable surgical sutures and the skin was closed with medical glue (dermabond). Postoperative analgesia was 0.05 mg/kg of buprenorphine subcutaneously per 8-12 hours postoperatively.
Mice were hand restrained prior to intraperitoneal injections. Mice were euthanized 6 weeks after tumor innoculation and tumor and tissue collected. As described below, mice were imaged weekly with the IVIS lumina imager and tumor size was estimated by the bioluminescent signal. […]

Question: Which “body weights between animals in each group” value ([1]; 50 mg/kg daily intraperitoneal) does the source give for `CSc1ncnc2c1ccn2C1O[C@H](COP(=O)(O)O)[C@@H](O)[C@H]1O` (stereo partly drawn) [INT2-31, 4-(Methylthio)-7-(5-O-phosphono-D-ribofuranosyl)-{7H-Pyrrolo[2,3-d]pyrimidine}] here?
Answer: The value was “no significant difference”.

Question: What about the “tumor growth compared to PBS control” value ([1]; 50 mg/kg daily intraperitoneal, 21 days, p<0.05) of the same compound?
Answer: Its value is “significant decrease”.

Question: And the “percent of cells reactive to Ki67” value ([1]; 50 mg/kg vs PBS group)?
Answer: The value was “significantly decreased”.

Question: And the “growth of the orthotopic pancreatic xenografts” value [2]?
Answer: Its value is “sufficiently reduced the growth”.
